This experiment addresses T1, commercial GSK3beta (Millipore) (Homo sapiens, UniProt P49841).
T1 construct: purchased Millipore
Description: biochemical. On the procedure:
In a fourth protocol: 7.5 μM of prephosphorylated GS1 peptide and 10 μM ATP (containing 300,000 cpm of ^33P-ATP) were incubated in 50 mM Hepes, pH 7.2, 1 mM DTT, 1 mM MgCl2, 1 mM EGTA, 0.01% Tween 20 buffer for 90 minutes at room temperature in the presence of commercial GSK3beta (Millipore) (total reaction volume: 100 microliters).
Inhibitors were solubilised in DMSO (final solvent concentration in the reaction medium, 1%).
The reaction was stopped with 100 microliters of a solution made of 25 g polyphosphoric acid (85% P2O5), 126 ml 85% H3PO4, H2O to 500 ml and then diluted to 1:100 before use. An aliquot of the reaction mixture was then transferred to Whatman P81 cation exchange filters and rinsed with the solution described above. Incorporated ^33P radioactivity was determined by liquid scintillation spectrometry.
(Woodgett, J. R. (1989) Analytical Biochemistry 180, 237-241.

[1] abbreviates: protocol 4: 7.5 μM GS1 peptide, 10 μM ATP, 90 minutes at room temperature, read-out: GSK3β inhibitory activity IC50.

Read-outs that look alike come from different tables or passages of the source.

T1 sequence (P49841 whole entry): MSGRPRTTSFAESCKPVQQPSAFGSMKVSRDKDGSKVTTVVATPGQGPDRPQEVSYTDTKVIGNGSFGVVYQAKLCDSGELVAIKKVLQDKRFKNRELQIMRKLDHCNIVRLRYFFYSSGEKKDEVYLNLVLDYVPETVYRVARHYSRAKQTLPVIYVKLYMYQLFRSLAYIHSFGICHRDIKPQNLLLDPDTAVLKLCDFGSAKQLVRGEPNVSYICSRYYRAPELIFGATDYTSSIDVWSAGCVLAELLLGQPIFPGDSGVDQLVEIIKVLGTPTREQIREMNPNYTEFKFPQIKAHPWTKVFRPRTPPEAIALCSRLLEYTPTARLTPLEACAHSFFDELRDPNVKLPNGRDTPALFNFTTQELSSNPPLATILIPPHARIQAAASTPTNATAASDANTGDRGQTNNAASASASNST

Regarding `CSc1ncc(Cl)c(C(=O)NC2COCCn3c2nc(-c2ccncn2)cc3=O)n1` (racemic) [compound 15, (+/−)-5-Chloro-2-methylsulfanyl-pyrimidine-4-carboxylic acid (4-oxo-2-pyrimidin-4-yl-5,6,8,9-tetrahydro-4H-7-oxa-1,4-a-diaza-benzocyclohepten-9-yl)-amide], the IC50 (usually the concentration that gives 50% inhibition) under setting [1] stood at 0.031 µM.
With `CSc1ncc(Br)c(C(=O)NC2COCCn3c2nc(-c2ccncn2)cc3=O)n1` (racemic) [compound 18, (+/−)-5-Bromo-2-methylsulfanyl-pyrimidine-4-carboxylic acid (4-oxo-2-pyrimidin-4-yl-5,6,8,9-tetrahydro-4H-7-oxa-1,4-a-diaza-benzocyclohepten-9-yl)-amide], the IC50 under setting [1] was 0.052 µM.
On to `O=C(NC1COCCn2c1nc(-c1ccncn1)cc2=O)c1ccccn1` (racemic) [compound 17, (+/−)-Pyridine-2-carboxylic acid (4-oxo-2-pyrimidin-4-yl-5,6,8,9-tetrahydro-4H-7-oxa-1,4-a-diaza-benzocyclohepten-9-yl)-amide], for which the half-maximal inhibitory concentration (IC50) was 0.015 µM.
Consider `O=C(NC1COCCn2c1nc(-c1ccncn1)cc2=O)c1cc(F)cc2c1OCOC2` (racemic) [compound 12, (+/−)-6-Fluoro-4H-benzo[1,3]dioxine-8-carboxylic acid (4-oxo-2-pyrimidin-4-yl-5,6,8,9-tetrahydro-4H-7-oxa-1,4-a-diaza-benzocyclohepten-9-yl)-amide], for which the IC50 under setting [1] is 0.005 µM.

These data come from US8501728B2, “Substituted heteroarylamide oxazepinopyrimidone derivatives” (priority 2008, dated 2013).
